Assay results taken from the NIST ThermoML archive (doi:10.1021/acs.jced.8b00812).

Settings: Liquid; for viscosity: Capillary tube (Ostwald / Ubbelohde) method; for mass density: Vibrating tube method

CCCCCCCCCO [nonan-1-ol]
Settings	mass density [kg/m3]	viscosity [mPa·s]
298.15 K, 1990 kPa	825.5	9.285
298.15 K, 3990 kPa	826.7	9.511
298.15 K, 6000 kPa	828	9.746
298.15 K, 8010 kPa	829.2	9.958
298.15 K, 10010 kPa	830.5	10.17
298.15 K, 13000 kPa	832.2	10.51
298.15 K, 16000 kPa	833.9	10.85
298.15 K, 19010 kPa	835.5	11.2
298.15 K, 21990 kPa	837.1	11.56
298.15 K, 25000 kPa	838.7	11.93
298.15 K, 28020 kPa	840.2	12.28
298.15 K, 30020 kPa	841.1	12.51
303.14 K, 27980 kPa	836.9	11.13
303.15 K, 2010 kPa	822	8.424
303.15 K, 4010 kPa	823.2	8.633
303.15 K, 6020 kPa	824.5	8.843
303.15 K, 8030 kPa	825.7	9.053
303.15 K, 9990 kPa	826.9	9.257
303.15 K, 12980 kPa	828.7	9.568
303.15 K, 15970 kPa	830.4	9.88
303.15 K, 19020 kPa	832.1	10.2
303.15 K, 22010 kPa	833.8	10.51
303.15 K, 25000 kPa	835.4	10.82
303.15 K, 30000 kPa	837.9	11.34
313.15 K, 2000 kPa	814.9	6.381
313.15 K, 3970 kPa	816.3	6.536
313.15 K, 6020 kPa	817.6	6.699
313.15 K, 7990 kPa	818.9	6.854
313.15 K, 10020 kPa	820.2	7.015
313.15 K, 13000 kPa	822	7.25
313.15 K, 16000 kPa	823.8	7.487
313.15 K, 18980 kPa	825.6	7.723
313.15 K, 22000 kPa	827.3	7.961
313.15 K, 25000 kPa	829	8.198
313.15 K, 28010 kPa	830.6	8.436
313.15 K, 29990 kPa	831.7	8.592
323.15 K, 2010 kPa	808.3	4.745
323.15 K, 4020 kPa	809.7	4.859
323.15 K, 6020 kPa	811	4.976
323.15 K, 8010 kPa	812.3	5.09
323.15 K, 10010 kPa	813.7	5.202
323.15 K, 13010 kPa	815.7	5.376
323.15 K, 16010 kPa	817.5	5.539
323.15 K, 19000 kPa	819.3	5.716
323.15 K, 22010 kPa	821.1	5.892
323.15 K, 25000 kPa	822.9	6.07
323.15 K, 28000 kPa	824.6	6.247
323.15 K, 30000 kPa	825.7	6.373

CCCCCO [pentan-1-ol]
Settings	mass density [kg/m3]	viscosity [mPa·s]
298.15 K, 2000 kPa	813	3.59
298.15 K, 4000 kPa	814.4	3.66
298.15 K, 6000 kPa	815.8	3.732
298.15 K, 8010 kPa	817.1	3.796
298.15 K, 10000 kPa	818.5	3.869
298.15 K, 13000 kPa	820.4	3.975
298.15 K, 16000 kPa	822.3	4.081
298.15 K, 19010 kPa	824.1	4.192
298.15 K, 22000 kPa	825.9	4.299
298.15 K, 25000 kPa	827.6	4.409
298.15 K, 27990 kPa	829.4	4.507
298.15 K, 29980 kPa	830.4	4.577
303.15 K, 19000 kPa	820.3	3.757
303.15 K, 27980 kPa	825.6	4.041
303.16 K, 1980 kPa	808.8	3.219
303.16 K, 3980 kPa	810.2	3.282
303.16 K, 6010 kPa	811.7	3.346
303.16 K, 8020 kPa	813	3.41
303.16 K, 10030 kPa	814.4	3.474
303.16 K, 12990 kPa	816.4	3.567
303.16 K, 15980 kPa	818.4	3.662
303.16 K, 22010 kPa	822.1	3.852
303.16 K, 25000 kPa	823.9	3.947
303.16 K, 29990 kPa	826.7	4.105
313.15 K, 1990 kPa	800.6	2.438
313.15 K, 4000 kPa	802.2	2.486
313.15 K, 5980 kPa	803.7	2.533
313.15 K, 7980 kPa	805.1	2.581
313.15 K, 10020 kPa	806.6	2.629
313.15 K, 13010 kPa	808.7	2.701
313.15 K, 19020 kPa	812.8	2.845
313.15 K, 21980 kPa	814.7	2.916
313.15 K, 30020 kPa	819.6	3.109
313.16 K, 15980 kPa	810.8	2.772
313.16 K, 24990 kPa	816.6	2.988
313.16 K, 28000 kPa	818.4	3.06
323.15 K, 2000 kPa	793.5	1.833
323.15 K, 4000 kPa	795	1.866
323.15 K, 6000 kPa	796.7	1.901
323.15 K, 8000 kPa	798.2	1.935
323.15 K, 10000 kPa	799.6	1.969
323.15 K, 13000 kPa	801.9	2.022
323.15 K, 16000 kPa	804	2.078
323.15 K, 19000 kPa	806.1	2.133
323.15 K, 22000 kPa	808.2	2.189
323.15 K, 25000 kPa	810.2	2.244
323.15 K, 27990 kPa	812.1	2.299
323.15 K, 29990 kPa	813.4	2.335

CCCCCCCO [heptan-1-ol]
Settings	mass density [kg/m3]	viscosity [mPa·s]
298.15 K, 2000 kPa	820.2	5.971
298.15 K, 4020 kPa	821.4	6.1
298.15 K, 6010 kPa	822.8	6.229
298.15 K, 8000 kPa	824	6.364
298.15 K, 10000 kPa	825.3	6.484
298.15 K, 13000 kPa	827.1	6.686
298.15 K, 16000 kPa	828.9	6.881
298.15 K, 19000 kPa	830.7	7.084
298.15 K, 22000 kPa	832.5	7.293
298.15 K, 25000 kPa	834.2	7.516
298.15 K, 28000 kPa	835.9	7.72
298.15 K, 29990 kPa	836.9	7.864
303.16 K, 2030 kPa	816.5	5.186
303.16 K, 4030 kPa	817.9	5.302
303.16 K, 6040 kPa	819.3	5.42
303.16 K, 7980 kPa	820.5	5.534
303.16 K, 9990 kPa	821.8	5.651
303.16 K, 12990 kPa	823.6	5.826
303.16 K, 16020 kPa	825.5	6.004
303.16 K, 19020 kPa	827.3	6.179
303.16 K, 22000 kPa	829.2	6.353
303.16 K, 24980 kPa	830.9	6.527
303.16 K, 27980 kPa	832.5	6.703
303.16 K, 30010 kPa	833.7	6.822
313.15 K, 2000 kPa	809.2	3.763
313.15 K, 4000 kPa	810.6	3.848
313.15 K, 5980 kPa	811.9	3.932
313.15 K, 7980 kPa	813.3	4.017
313.15 K, 9970 kPa	814.6	4.101
313.15 K, 13030 kPa	816.5	4.231
313.15 K, 16020 kPa	818.4	4.358
313.15 K, 19000 kPa	820.4	4.484
313.15 K, 22020 kPa	822.2	4.613
313.15 K, 25010 kPa	824	4.739
313.15 K, 27980 kPa	825.7	4.865
313.15 K, 30010 kPa	826.9	4.952
323.15 K, 1990 kPa	802.1	2.748
323.15 K, 4010 kPa	803.4	2.812
323.15 K, 5990 kPa	804.8	2.876
323.15 K, 8010 kPa	806.2	2.94
323.15 K, 10010 kPa	807.6	2.997
323.15 K, 13000 kPa	809.7	3.088
323.15 K, 16000 kPa	811.8	3.179
323.15 K, 18990 kPa	813.7	3.266
323.15 K, 22000 kPa	815.6	3.358
323.15 K, 25000 kPa	817.4	3.451
323.15 K, 28000 kPa	819.3	3.542
323.15 K, 30000 kPa	820.5	3.607
